Where two headings read alike, the source gives them in different places.
Test: Phase 1 trial: plasma pharmacokinetics
Format: in vivo
Conditions: human; for AUC(0-t): read-out: AUC0–12 h mean; for AUC(0-inf): read-out: AUCINF_obs mean; for Cmax: read-out: Cmax mean; for MRT inf: read-out: MRTINF_obs mean; for half-life: read-out: T1/2 mean (converted); for Tmax: read-out: Tmax mean
Excerpt: Serial plasma samples were also collected in each patient after the first dose and during multiple-dose administration on Cycle 1 Day 28.

[1] = 20 mg, Cycle 1 Day 1, 20 mg BID (n = 1)
[2] = 20 mg, Cycle 1 Day 1, 20 mg QD (n = 1)
[3] = 40 mg, Cycle 1 Day 1, 40 mg BID (n = 3)
[4] = 80 mg, Cycle 1 Day 1, 80 mg BID (n = 3)
[5] = 120 mg, Cycle 1 Day 1, 120 mg BID (n = 3)
[6] = 160 mg, Cycle 1 Day 1, 160 mg BID (n = 23)
[7] = 160 mg, Cycle 1 Day 28, 160 mg BID (n = 15)
[8] = 200 mg, Cycle 1 Day 28, 200 mg BID (n = 5)

COc1ccc(CN2C3CC2CN(c2ccc(-c4cc(N5CC(C)(O)C5)cn5ncc(C#N)c45)cn2)C3)cn1 [SY-5007, 6-(3-hydroxy-3-methylazetidin-1-yl)-4-(6-(6-((6-methoxypyridin-3-yl)methyl)-3,6-diazabicyclo[3.1.1]heptan-3-yl)pyridin-3-yl)pyrazolo[1,5-a]pyridine-3-carbonitrile]
AUC(0-t) [1]: 1580 ng·h/mL | AUC(0-inf) [1]: 3830 ng·h/mL | Cmax [1]: 214 ng/mL | MRT inf [1]: 16.7 h | half-life [1]: 12.1 h | Tmax [1]: 4 h | AUC(0-t) [2]: 2230 ng·h/mL | AUC(0-inf) [2]: 2410 ng·h/mL | Cmax [2]: 391 ng/mL | MRT inf [2]: 7.7 h | half-life [2]: 6.8 h | Tmax [2]: 1 h | AUC(0-t) [3]: 2720 ng·h/mL | AUC(0-inf) [3]: 3760 ng·h/mL | Cmax [3]: 714 ng/mL | MRT inf [3]: 8.9 h | half-life [3]: 8.7 h | Tmax [3]: 0.5 h | AUC(0-t) [4]: 5150 ng·h/mL | AUC(0-inf) [4]: 7220 ng·h/mL | Cmax [4]: 1450 ng/mL | MRT inf [4]: 12.4 h | half-life [4]: 37.8 h | Tmax [4]: 0.5 h | AUC(0-t) [5]: 9270 ng·h/mL | AUC(0-inf) [5]: 14100 ng·h/mL | Cmax [5]: 2470 ng/mL | MRT inf [5]: 11.6 h | half-life [5]: 44.4 h | Tmax [5]: 0.5 h | AUC(0-t) [6]: 16700 ng·h/mL | AUC(0-inf) [6]: 21300 ng·h/mL | Cmax [6]: 3470 ng/mL | MRT inf [6]: 8.2 h | half-life [6]: 10.8 h | Tmax [6]: 1 h | AUC(0-t) [7]: 36800 ng·h/mL | AUC(0-inf) [7]: 67200 ng·h/mL | Cmax [7]: 4730 ng/mL | MRT inf [7]: 13.9 h | half-life [7]: 9 h | Tmax [7]: 2 h | AUC(0-t) [8]: 41100 ng·h/mL | AUC(0-inf) [8]: 63700 ng·h/mL | Cmax [8]: 5520 ng/mL | MRT inf [8]: 10.8 h | half-life [8]: 7 h | Tmax [8]: 2 h | AUC(0-t) (oral, 20 mg, Cycle 1 Day 28, 20 mg BID (n = 1)): 2940 ng·h/mL
